Data published in patent US4399274A, “Isolation of non-ionic lipophilic materials on macroreticular polymeric absorbents” (priority 1981, dated 1983).

Assay: Partition of avermectins between aqueous acetone and Duolite ES-863 resin (HPLC of supernatant before and after equilibration)
[1] = 21.4% acetone (vol), 4 ml supernatant, 1 g ES-863 resin, equilibrated for an hour
[2] = 23.1% acetone (vol), 4 ml supernatant, 1 g ES-863 resin, equilibrated for an hour
[3] = 25.0% acetone (vol), 4 ml supernatant, 1 g ES-863 resin, equilibrated for an hour
[4] = 27.3% acetone (vol), 4 ml supernatant, 1 g ES-863 resin, equilibrated for an hour
[5] = 37.5% acetone (vol), 4 ml supernatant, 1 g ES-863 resin, equilibrated for an hour
[6] = 42.9% acetone (vol), 4 ml supernatant, 1 g ES-863 resin, equilibrated for an hour
[7] = 50.0% acetone (vol), 4 ml supernatant, 1 g ES-863 resin, equilibrated for an hour
[8] = 60.0% acetone (vol), 4 ml supernatant, 1 g ES-863 resin, equilibrated for an hour
[9] = 68.0% acetone, ES-863 resin, similar procedures
[10] = 73.3% acetone, ES-863 resin, similar procedures
[11] = 77.1% acetone, ES-863 resin, similar procedures
[12] = 80.0% acetone, ES-863 resin, similar procedures
[13] = 82.2% acetone, ES-863 resin, similar procedures

Method: After standing overnight they were centrifuged and 4 ml of each supernatant was transferred to tubes containing 1 g each of purified ES-863 resin. An aliquot was also taken for HPLC assay.
The samples containing the resin were equilibrated for an hour, then centrifuged. The supernatants were assayed by HPLC. A comparison of the assays before and after equilibration represent the partition between the solvent and the adsorbent.

In the case of COC1CC(OC2C(C)OC(OC3C(C)=CCC4CC(CC5(C=CC(C)C(C(C)C)O5)O4)OC(=O)C4C=C(C)C(OC)C5OCC(=CC=CC3C)C45O)CC2OC)OC(C)C1O (stereo not drawn) [A1b], the “% Remaining in Solution” value [1] is reported as 4.56%, the “% Remaining in Solution” value [2] is reported as 4.85% and the “% Remaining in Solution” value [3] is reported as 5.63%. The “% Remaining in Solution” value [4] was 6.42%, the “% Remaining in Solution” value [5] was 3.18% and the “% Remaining in Solution” value [6] was 3.13%. For the same compound, the “% Remaining in Solution” value [7] was 2.42%, the “% Remaining in Solution” value [8] was 1.69% and the “% Remaining in Solution” value [9] was 10.6%. For the same compound, the “% Remaining in Solution” value [10] was 68.1%, the “% Remaining in Solution” value [11] was 111% and the “% Remaining in Solution” value [12] was 145%. For the same compound, the “% Remaining in Solution” value [13] was 79.0%.
In the case of COC1CC(OC2C(C)OC(OC3C(C)=CCC4CC(CC5(CC(O)C(C)C(C(C)C)O5)O4)OC(=O)C4C=C(C)C(OC)C5OCC(=CC=CC3C)C45O)CC2OC)OC(C)C1O (stereo not drawn) [A2b], the “% Remaining in Solution” value [1] is reported as 2.75%, the “% Remaining in Solution” value [2] is reported as 3.89% and the “% Remaining in Solution” value [3] is reported as 5.38%. For the same compound, the “% Remaining in Solution” value [4] was 3.73%, the “% Remaining in Solution” value [5] was 2.70% and the “% Remaining in Solution” value [6] was 1.71%. For the same compound, the “% Remaining in Solution” value [7] was 0.57%, the “% Remaining in Solution” value [8] was 0.3% and the “% Remaining in Solution” value [9] was 26.8%. The “% Remaining in Solution” value [10] was 64.8%, the “% Remaining in Solution” value [11] was 94.4% and the “% Remaining in Solution” value [12] was 117%. For the same compound, the “% Remaining in Solution” value [13] was 128%.
With CCC(C)C1OC2(CC3CC(CC=C(C)C(OC4CC(OC)C(OC5CC(OC)C(O)C(C)O5)C(C)O4)C(C)C=CC=C4COC5C(O)C(C)=CC(C(=O)O3)C45O)O2)CC(O)C1C (stereo not drawn) [B2a] the “% Remaining in Solution” value [1] was 5.10%, the “% Remaining in Solution” value [2] was 6.09% and the “% Remaining in Solution” value [3] was 7.29%. For the same compound, the “% Remaining in Solution” value [4] was 5.37%, the “% Remaining in Solution” value [5] was 3.21% and the “% Remaining in Solution” value [6] was 2.65%. The “% Remaining in Solution” value [7] was 1.36%, the “% Remaining in Solution” value [8] was 4.95% and the “% Remaining in Solution” value [9] was 27.8%. The “% Remaining in Solution” value [10] was 60.4%, the “% Remaining in Solution” value [11] was 82.1% and the “% Remaining in Solution” value [12] was 99.8%. The “% Remaining in Solution” value [13] was 165%.
For COC1CC(OC2C(C)OC(OC3C(C)=CCC4CC(CC5(CC(O)C(C)C(C(C)C)O5)O4)OC(=O)C4C=C(C)C(O)C5OCC(=CC=CC3C)C45O)CC2OC)OC(C)C1O (stereo not drawn) [B2b], the “% Remaining in Solution” value [1] was under 2%, the “% Remaining in Solution” value [2] was 4.80% and the “% Remaining in Solution” value [3] was 5.08%. The “% Remaining in Solution” value [4] was 2.34%, the “% Remaining in Solution” value [5] was under 3% and the “% Remaining in Solution” value [6] was 3.89%. The “% Remaining in Solution” value [7] was 4.35%, the “% Remaining in Solution” value [8] was 33.3% and the “% Remaining in Solution” value [13] was 135%.
With CCC(C)C1OC2(CC3CC(CC=C(C)C(OC4CC(OC)C(OC5CC(OC)C(O)C(C)O5)C(C)O4)C(C)C=CC=C4COC5C(OC)C(C)=CC(C(=O)O3)C45O)O2)CC(O)C1C (stereo not drawn) [A2a] the “% Remaining in Solution” value [1] was 5.36%, the “% Remaining in Solution” value [2] was 6.54% and the “% Remaining in Solution” value [3] was 7.86%. The “% Remaining in Solution” value [4] was 6.99%, the “% Remaining in Solution” value [5] was 4.19% and the “% Remaining in Solution” value [6] was 3.76%. The “% Remaining in Solution” value [7] was 2.12%, the “% Remaining in Solution” value [8] was 2.72% and the “% Remaining in Solution” value [9] was 15.2%. For the same compound, the “% Remaining in Solution” value [10] was 42.1%, the “% Remaining in Solution” value [11] was 65.7% and the “% Remaining in Solution” value [12] was 86.7%. The “% Remaining in Solution” value [13] was 110%.
For CCC(C)C1OC2(C=CC1C)CC1CC(CC=C(C)C(OC3CC(OC)C(OC4CC(OC)C(O)C(C)O4)C(C)O3)C(C)C=CC=C3COC4C(OC)C(C)=CC(C(=O)O1)C34O)O2 (stereo not drawn) [A1a], the “% Remaining in Solution” value [1] was 4.40%, the “% Remaining in Solution” value [2] was 6.75% and the “% Remaining in Solution” value [3] was 7.09%. The “% Remaining in Solution” value [4] was 8.42%, the “% Remaining in Solution” value [5] was 3.60% and the “% Remaining in Solution” value [6] was 4.39%. The “% Remaining in Solution” value [7] was 3.03%, the “% Remaining in Solution” value [8] was 2.10% and the “% Remaining in Solution” value [9] was 5.68%. For the same compound, the “% Remaining in Solution” value [10] was 19.7%, the “% Remaining in Solution” value [11] was 36.2% and the “% Remaining in Solution” value [12] was 51.5%. For the same compound, the “% Remaining in Solution” value [13] was 136%.
For COC1CC(OC2C(C)OC(OC3C(C)=CCC4CC(CC5(C=CC(C)C(C(C)C)O5)O4)OC(=O)C4C=C(C)C(O)C5OCC(=CC=CC3C)C45O)CC2OC)OC(C)C1O (stereo not drawn) [B1b], the “% Remaining in Solution” value [1] was 3.73%, the “% Remaining in Solution” value [2] was 5.03% and the “% Remaining in Solution” value [3] was 6.32%. The “% Remaining in Solution” value [4] was 4.55%, the “% Remaining in Solution” value [5] was 2.59% and the “% Remaining in Solution” value [6] was 2.13%. For the same compound, the “% Remaining in Solution” value [7] was 0.90%, the “% Remaining in Solution” value [8] was 1.53% and the “% Remaining in Solution” value [9] was 20.4%. For the same compound, the “% Remaining in Solution” value [10] was 5.15%, the “% Remaining in Solution” value [11] was 73.8% and the “% Remaining in Solution” value [12] was 94.2%. For the same compound, the “% Remaining in Solution” value [13] was 123%.
